This assay addresses PCSK9 (Homo sapiens, UniProt Q8NBP7). Briefly: PCSK9-LDLR in vitro Binding Assay (ELISA). Conditions: for inhibition at 5 µM: Concentration 5 μM. The procedure:
The PCSK9-LDLR in vitro Binding Assay is a quantitative solid phase binding assay between PCSK9 and recombinant LDLR. Plates were pre-coated with a recombinant LDLR-AB domain, which binds PCSK9. Test compound at different concentration was added to the PCSK9 and added to LDLR immobilized on the wells. The amount of bound PCSK9 is measured by binding it with biotinylated anti-His-tag monoclonal antibody, followed by binding with horseradish peroxidase conjugated streptavidin substrate. The color was quantified by ELISA reader at […] which reflects the relative amount of PCSK9 that binds to LDLR in presence and absence of the inhibitor. EC50 values were calculated by nonlinear regression analysis using graph pad prism software. Each concentration point represents values in duplicates.
(In general: An ELISA detects its analyte on a solid surface through an enzyme-linked reagent.)

The structures appear in SMILES notation.

PCSK9, sequence (Q8NBP7 153-692): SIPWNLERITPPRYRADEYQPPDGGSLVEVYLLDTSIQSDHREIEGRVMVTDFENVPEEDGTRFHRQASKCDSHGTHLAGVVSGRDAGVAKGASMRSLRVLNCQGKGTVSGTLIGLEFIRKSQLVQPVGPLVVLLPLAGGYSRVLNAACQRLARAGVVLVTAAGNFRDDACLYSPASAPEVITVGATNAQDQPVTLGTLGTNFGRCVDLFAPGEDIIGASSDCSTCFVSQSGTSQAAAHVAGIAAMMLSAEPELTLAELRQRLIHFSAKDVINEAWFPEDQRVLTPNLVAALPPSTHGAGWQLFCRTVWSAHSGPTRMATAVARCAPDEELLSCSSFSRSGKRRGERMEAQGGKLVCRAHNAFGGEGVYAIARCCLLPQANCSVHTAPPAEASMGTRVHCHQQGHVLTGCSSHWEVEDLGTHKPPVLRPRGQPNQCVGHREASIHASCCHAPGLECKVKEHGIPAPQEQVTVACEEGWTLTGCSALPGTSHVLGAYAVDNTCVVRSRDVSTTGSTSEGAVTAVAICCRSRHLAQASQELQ
PCSK9, sequence (Q8NBP7 31-152 partner limits assumed): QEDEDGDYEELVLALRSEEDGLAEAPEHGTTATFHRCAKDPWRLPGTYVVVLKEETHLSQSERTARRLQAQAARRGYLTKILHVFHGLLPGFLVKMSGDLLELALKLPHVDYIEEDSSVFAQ

Regarding `Cc1oc(-c2ccccc2)nc1CCC1COC(C)(C(=O)NO)OC1` (stereo not shown) [Example 35, N-hydroxy-2-methyl-5-c-(2-(5-methyl-2-phenyloxazol-4-yl)ethyl)-1,3-dioxane-2-carboxamide], the “% Inhibition PCSK9” value (Concentration 1 μM, 1 µM) was 18%; the “% Inhibition PCSK9” value (Concentration 10 μM) stood at 19%; the “% Inhibition PCSK9” value (Concentration 100 μM, 100 µM) is 19%.
With `Cc1oc(-c2ccccc2)nc1CCC1COC(C)(C(=O)NO)OC1` (stereo not shown) [Example 36, N-hydroxy-2-methyl-5t-(2-(5-methyl-2-phenyloxazol-4-yl)ethyl)-1,3-dioxane-2-carboxamide], the “% Inhibition PCSK9” value runs as follows: (Concentration 1 μM, 1 µM) 10%; (Concentration 100 μM, 100 µM) 24%.
As to `Cc1oc(-c2ccccc2)nc1CCC1COC(C)(C(=O)NCC2CCOCC2)OC1` (stereo not shown) [Example 38, 2-methyl-5-c-(2-(5-methyl-2-phenyloxazol-4-yl)ethyl)-N—((tetrahydro-2H-pyran-4-yl)methyl)-1,3-dioxane-2-carboxamide], the “% Inhibition PCSK9” value runs as follows: (Concentration 10 μM) 14%; (Concentration 100 μM) 21%.
With `Cc1oc(-c2ccccc2)nc1CCC1COC(C)(C(=O)N2CCOCC2)OC1` (stereo not shown) [Example 41, (2-methyl-5-c-(2-(5-methyl-2-phenyloxazol-4-yl)ethyl)-1,3-dioxan-2-yl)(morpholino)methanone], the “% Inhibition PCSK9” value was 12% (Concentration 10 μM) and 19% (Concentration 100 μM).
Taken in the same sequence, the figures for `Cc1oc(-c2ccccc2)nc1CCC1COC(C)(C(=O)N2CCN(C)CC2)OC1` (stereo not shown) [Example 43, (2-methyl-5-c-(2-(5-methyl-2-phenyloxazol-4-yl)ethyl)-1,3-dioxan-2-yl)(4-methylpiperazin-1-yl)methanone] were 8% and 10%.
As to `Cc1oc(-c2ccccc2)nc1CCC1COC(C)(C(=O)N2CCSCC2)OC1` (stereo not shown) [Example 45, (2-methyl-5-c-(2-(5-methyl-2-phenyloxazol-4-yl)ethyl)-1,3-dioxan-2-yl)(thiomorpholino)methanone], the “% Inhibition PCSK9” value reads like this: (Concentration 10 μM) 11%; (Concentration 100 μM) 18%.
The matching figures for `Cc1oc(-c2ccccc2)nc1CCC1COC(C)(C(=O)N2CCS(=O)(=O)CC2)OC1` (stereo not shown) [Example 46, (1,1-dioxidothiomorpholino)(2-methyl-5-c-(2-(5-methyl-2-phenyloxazol-4-yl)ethyl)-1,3-dioxan-2-yl)methanone]: 12% and 18%.
As for `Cc1oc(-c2ccccc2)nc1CCC1COC(C)(C(=O)NCC(=O)N2CCOCC2)OC1` (stereo not shown) [Example 47, 2-methyl-5-(2-(5-methyl-2-phenyloxazol-4-yl)ethyl)-N-(2-morpholino-2-oxoethyl)-1,3-dioxane-2-carboxamide], the inhibition at 1 µM (Concentration 1 μM) was 38%. The inhibition at 10 µM (Concentration 10 μM) was found to be 38%. In addition, 100 µM produced 42% inhibition (Concentration 100 μM).
Take `Cc1oc(-c2ccccc2)nc1CCC1COC(C)(C(=O)NCC(=O)N2CCOCC2)OC1` (stereo not shown) [Example 49, 2-methyl-5-t-(2-(5-methyl-2-phenyloxazol-4-yl)ethyl)-N-(2-morpholino-2-oxoethyl)-1,3-dioxane-2-carboxamide]: the “% Inhibition PCSK9” value (Concentration 100 μM) came out at 17%.
Turning to `Cc1oc(-c2ccccc2)nc1CCC1COC(C)(C(=O)NCC(=O)N2CCN(C)CC2)OC1` (stereo not shown) [Example 51, 2-methyl-5-c-(2-(5-methyl-2-phenyloxazol-4-yl)ethyl)-N-(2-(4-methylpiperazin-1-yl)-2-oxoethyl)-1,3-dioxane-2-carboxamide], the “% Inhibition PCSK9” value came to 10% (Concentration 10 μM) and 35% (Concentration 100 μM).
Consider `Cc1oc(-c2ccccc2)nc1CCC1COC(C)(C(=O)NCC(=O)N2CCSCC2)OC1` (stereo not shown) [Example 52, 2-methyl-5-c-(2-(5-methyl-2-phenyloxazol-4-yl)ethyl)-N-(2-oxo-2-thiomorpholinoethyl)-1,3-dioxane-2-carboxamide], for which the “% Inhibition PCSK9” value runs as follows: (Concentration 10 μM) 20%; (Concentration 100 μM) 32%.
Where the note is “Concentration 10 μM”, `CC(=O)C(Cc1ccccc1)NC(=O)C1(C)OCC(CCc2nc(-c3ccccc3)oc2C)CO1` (stereo not shown) [Example 54, 2-methyl-5-(2-(5-methyl-2-phenyloxazol-4-yl)ethyl)-N-(3-oxo-1-phenylbutan-2-yl)-1,3-dioxane-2-carboxamide] came in with an inhibition at 10 µM of 21%. 100 µM produced 29% inhibition (Concentration 100 μM).
For the setting “Concentration 10 μM”, `CC(=O)C(Cc1ccccc1)NC(=O)CNC(=O)C1(C)OCC(CCc2nc(-c3ccccc3)oc2C)CO1` (stereo not shown) [Example 55, 2-methyl-5-(2-(5-methyl-2-phenyloxazol-4-yl)ethyl)-N-(2-oxo-2-((3-oxo-1-phenylbutan-2-yl)amino)ethyl)-1,3-dioxane-2-carboxamide] displayed an inhibition at 10 µM of 23%. Under “Concentration 100 μM”, this compound showed an inhibition at 100 µM of 30%.
`Cc1ccc(-c2nc(CC3COC(C)(C(=O)NOCc4ccccc4)OC3)c(C)o2)cc1` (stereo not shown) [Example 56, N-benzyloxy-2-methyl-5-((5-methyl-2-(p-tolyl)oxazol-4-yl)methyl)-1,3-dioxane-2-carboxamide]: 5 µM produced 6% inhibition. Where the note is “Concentration 10 μM”, this compound yielded an inhibition at 10 µM of 17%.
Take `Cc1ccc(-c2nc(CC3COC(C)(C(=O)NO)OC3)c(C)o2)cc1` (stereo not shown) [Example 60, N-hydroxy-2-methyl-5-c-((5-methyl-2-(p-tolyl)oxazol-4-yl)methyl)-1,3-dioxane-2-carboxamide]: the “% Inhibition PCSK9” value (Concentration 1 μM) came to 28%; the “% Inhibition PCSK9” value (Concentration 10 μM, 10 µM) was 26%; the “% Inhibition PCSK9” value (Concentration 100 μM, 100 µM) is on record as 70%.
On to `Cc1ccc(-c2nc(CC3COC(C)(C(=O)NO)OC3)c(C)o2)cc1` (stereo not shown) [Example 61, N-hydroxy-2-methyl-5-t-((5-methyl-2-(p-tolyl)oxazol-4-yl)methyl)-1,3-dioxane-2-carboxamide], for which the “% Inhibition PCSK9” value was 21% (Concentration 10 μM, 10 µM) and 32% (Concentration 100 μM, 100 µM).
In turn, `Cc1ccc(-c2nc(CC3COC(C)(C(=O)NCC4CCOCC4)OC3)c(C)o2)cc1` (stereo not shown) [Example 62, 2-methyl-5-((5-methyl-2-(p-tolyl)oxazol-4-yl)methyl)-N—((tetrahydro-2H-pyran-4-yl)methyl)-1,3-dioxane-2-carboxamide] returned an inhibition at 0.1 µM (Concentration 0.1 μM) of 17%. The compound also had an inhibition at 1 µM (Concentration 1 μM) of 21%. For the setting “Concentration 10 μM”, this compound displayed an inhibition at 10 µM of 14%. Also, under “Concentration 100 μM”, at 100 µM the inhibition was 41%.
In turn, `Cc1ccc(-c2nc(CC3COC(C)(C(=O)N4CCOCC4)OC3)c(C)o2)cc1` (stereo not shown) [Example 65, (2-methyl-5-((5-methyl-2-(p-tolyl)oxazol-4-yl)methyl)-1,3-dioxan-2-yl)(morpholino)methanone] displayed an inhibition at 1 µM (Concentration 1 μM) of 11%. This compound displayed an inhibition at 10 µM (Concentration 10 μM) of 26%. Where the note is “Concentration 100 μM”, the inhibition at 100 µM came to 35%.
In the case of `Cc1ccc(-c2nc(CC3COC(C)(C(=O)N4CCOCC4)OC3)c(C)o2)cc1` (stereo not shown) [Example 66, (2-methyl-5-c-((5-methyl-2-(p-tolyl)oxazol-4-yl)methyl)-1,3-dioxan-2-yl)(morpholino)methanone], the “% Inhibition PCSK9” value by setting is: (Concentration 1 μM, 1 µM) 23%; (Concentration 10 μM, 10 µM) 25%; (Concentration 100 μM, 100 µM) 31%.
As to `Cc1ccc(-c2nc(CC3COC(C)(C(=O)N4CCOCC4)OC3)c(C)o2)cc1` (stereo not shown) [Example 67, (2-methyl-5-t-((5-methyl-2-(p-tolyl)oxazol-4-yl)methyl)-1,3-dioxan-2-yl)(morpholino)methanone], the “% Inhibition PCSK9” value turned out to be 3% (Concentration 1 μM, 1 µM); 21% (Concentration 10 μM, 10 µM); 25% (Concentration 100 μM, 100 µM).
Compound `Cc1oc(C(C)(C)C)nc1CC1COC(C)(C(=O)NO)OC1` (stereo not shown) [Example 72, 5-((2-(tert-butyl)-5-methyloxazol-4-yl)methyl)-N-hydroxy-2-methyl-1,3-dioxane-2-carboxamide] registered an inhibition at 5 µM of 11%. In addition, testing at 100 µM (Concentration 100 μM) gave an inhibition of 25%. Besides, the inhibition at 110 µM (Concentration 110 μM) was 20%.
For the compound `Cc1ccc(-c2nc(CC3COC(C)(C(=O)NCC4CCOCC4)OC3)c(C)o2)s1` (stereo not shown) [Example 74, 2-methyl-5-c-((5-methyl-2-(5-methylthiophen-2-yl)oxazol-4-yl)methyl)-N—((tetrahydro-2H-pyran-4-yl)methyl)-1,3-dioxane-2-carboxamide], the “% Inhibition PCSK9” value by setting is: (Concentration 1 μM, 1 µM) 4%; (Concentration 10 μM, 10 µM) 15%; (Concentration 100 μM, 100 µM) 27%.
The matching figures for `Cc1ccc(-c2nc(CC3COC(C)(C(=O)NCC4CCOCC4)OC3)c(C)o2)s1` (stereo not shown) [Example 75, 2-methyl-5-t-((5-methyl-2-(5-methylthiophen-2-yl)oxazol-4-yl)methyl)-N—((tetrahydro-2H-pyran-4-yl)methyl)-1,3-dioxane-2-carboxamide]: 15%, 11% and 20%.
Take `Cc1ccc(-c2nc(CC3COC(C)(C(=O)N4CCOCC4)OC3)c(C)o2)s1` (stereo not shown) [Example 76]: the “% Inhibition PCSK9” value (Concentration 1 μM) amounted to 6%; the “% Inhibition PCSK9” value (Concentration 10 μM, 10 µM) was determined as 17%; the “% Inhibition PCSK9” value (Concentration 100 μM, 100 µM) is 27%.
In the case of `Cc1ccc(-c2nc(CC3COC(C)(C(=O)N4CCOCC4)OC3)c(C)o2)s1` (stereo not shown) [Example 77], the “% Inhibition PCSK9” value by setting is: (Concentration 10 μM, 10 µM) 14%; (Concentration 100 μM, 100 µM) 16%.
As for `Cc1oc(-c2ccncc2)nc1CC1COC(C)(C(=O)NO)OC1` (stereo not shown) [Example 81, N-hydroxy-2-methyl-5-t-((5-methyl-2-(pyridin-4-yl)oxazol-4-yl)methyl)-1,3-dioxane-2-carboxamide], the “% Inhibition PCSK9” value runs as follows: (Concentration 1 μM, 1 µM) 7%; (Concentration 10 μM, 10 µM) 12%; (Concentration 100 μM, 100 µM) 23%.
Consider `Cc1oc(-c2ccncc2)nc1CC1COC(C)(C(=O)N2CCOCC2)OC1` (stereo not shown) [Example 82, (2-methyl-5-c-((5-methyl-2-(pyridin-4-yl)oxazol-4-yl)methyl)-1,3-dioxan-2-yl)(morpholino)methanone], for which the “% Inhibition PCSK9” value is, setting by setting: (Concentration 1 μM, 1 µM) 13%; (Concentration 10 μM, 10 µM) 20%; (Concentration 100 μM) 42%.

As a reminder, the inhibition is the relative decrease from the control value, in per cent.

These data come from patent US20120252796A1, “COMPOUNDS FOR THE TREATMENT OF DYSLIPIDEMIA AND RELATED DISEASES” (priority 2009, published 2012).
